Test: Solubility of metronidazole in water
Format: physicochemical
Settings: water/propylene glycol mixtures said to give higher solubilities (values not given)
Description: Without wishing to be bound by any particular theory, it is possible that the stabilizing effect according to the invention is at least partly due to the fact that a mixture of water and propylene glycol allows a very good solubilization of metronidazole, in particular when the water and the propylene glycol are present in the abovementioned advantageous ranges, whereas a lower solubilization is obtained when the propylene glycol is introduced after the dissolution of the metronidazole in water, even when the propylene glycol is post-introduced in large quantities as in the method of U.S. Pat. No. 4,837,378.

- solubility in water: ~0.78%
Compound: Cc1ncc([N+](=O)[O-])n1CCO [Metronidazole, 1-(2-hydroxyethyl)-2-methyl-5-nitroimidazole]
